Measured values as given in patent publication US9957273B2, “5-substituted 7- [4-(2-pyridyl)phenylmethylamino] -3-isopropylpyrazolo4,3-D]pyrimidine derivatives, use thereof as medicaments, and pharmaceutical compositions” (USTAV EXPERIMENTALNI BOTANIKY AV CR, V.V.I., priority 2015, dated 2018).
pEC50: −log10 of the molar value. Read-outs that look alike come from different tables or passages of the source.

Legend:
[1] = test system: K562 (human chronic myelogenous leukaemia); assay: MTT cytotoxicity assay, leukemic cell line K562; format: cell-based; conditions: three days
Description: (§1) Cytotoxicity of the compounds is the major property determining their antileukemic efficacy in vivo. One of the parameters used, as the basis for cytotoxicity assays, is the metabolic activity of viable cells. For example, a microtiter assay, which uses (3-(4,5-dimethylthiazol-2-yl)-2,5-diphenyltetrazolium bromide (MTT), is widely used to quantitate cell proliferation and cytotoxicity. This assay is widely used in drug screening programs and in chemosensitivity testing. Because only metabolically active living cells reduce MTT to correspond purple formazan dye, these assays detect viable cells exclusively. The quantity of reduced MTT corresponds to the number of vital cells in the culture.
(§2) The compounds were assayed using the following leukemic cell lines: K562 (human chronic myelogenous leukaemia), HL60 (human promyelocytic leukaemia), CEM (human lymphoblastoid leukaemia), THP1 (human monocytic cell line), MV4; 11 (acute myelocytic leukemia). All cell lines were grown in RPMI medium supplemented with fetal bovine serum and L-glutamine and maintained at 37° C. in a humidified atmosphere with 5% CO2. For cytotoxicity assays, 2000-5000 cells were seeded into each well of 96 well plate, allowed to stabilize for at least 8 h and then tested compounds were added at various concentrations ranging from 100 to 0.01 μM in triplicates. After three days, MTT solution (5 mg/ml; Sigma, St. Louis, USA) was added to cells and medium was replaced with DMSO after five hours. The absorbance was measured at 620 nm by employing a microplate reader. MTT assays were repeated 3 times for each drug application and untreated cells were used as reference.

[2] = test system: HL60 (human promyelocytic leukaemia); assay: MTT cytotoxicity assay, leukemic cell line HL60; format: cell-based; conditions: three days
Description: as §1, §2

[3] = test system: CEM (human lymphoblastoid leukaemia); assay: MTT cytotoxicity assay, leukemic cell line CEM; format: cell-based; conditions: three days
Description: as §1, §2

[4] = test system: THP1 (human monocytic cell line); assay: MTT cytotoxicity assay, leukemic cell line THP1; format: cell-based; conditions: three days
Description: as §1, §2

[5] = test system: MV4;11 (acute myelocytic leukemia); assay: MTT cytotoxicity assay, leukemic cell line MV4;11; format: cell-based; conditions: three days
Description: as §1, §2

CDK5/p35 = target: T1, CDK5/p35 (Homo sapiens, UniProt Q00535); assay: CDK5/p35 kinase inhibition (33P-ATP, histone H1); format: biochemical; conditions: 0.15 μM ATP
T1 construct: purchased ProQinase GmbH
Procedure: CDK2/Cyclin E kinase was produced in Sf9 insect cells via baculoviral infection and purified on a NiNTA column (Qiagen). […] CDK5/p35 was purchased from ProQinase GmbH.
(§3) The reactions were stopped by adding 5 μL of 3% aq H3PO4. Aliquots were spotted onto P-81 phosphocellulose (Whatman), washed 3× with 0.5% aq H3PO4 and finally air-dried.

CDK2/Cyclin E = target: T2, CDK2/Cyclin E (Homo sapiens, UniProt P24941); assay: CDK2/Cyclin E kinase inhibition (33P-ATP, histone H1); format: biochemical; conditions: 15 μM ATP
T2 construct: made in house; host or cells: Sf9 insect cells (baculovirus)
Procedure: CDK2/Cyclin E kinase was produced in Sf9 insect cells via baculoviral infection and purified on a NiNTA column (Qiagen). The kinase reactions were assayed with 1 mg/mL histone H1 in the presence of 15 μM ATP, 0.05 μCi [γ-^33P]ATP and of the test compound in a final volume of 10 μL, all in a reaction buffer (60 mM HEPES-NaOH, pH 7.5, 3 mM MgCl2, 3 mM MnCl2, 3 μM Na-orthovanadate, 1.2 mM DTT, 2.5 μg/50 μl PEG20.000). CDK5/p35 was purchased from ProQinase GmbH. The kinase reactions were assayed with 1 mg/mL histone H1 in the presence of 0.15 μM ATP, 0.05 μCi [γ-^33P]ATP and of the test compound in a final volume of 10 μL, all in a reaction buffer (60 mM HEPES-NaOH, pH 7.5, 3 mM MgCl2, 3 mM MnCl2, 3 μM Na-orthovanadate, 1.2 mM DTT, 2.5 μg/50 μl PEG20.000).
as §3

[6] = test system: G361 (malignant melanoma); assay: MTT cytotoxicity assay, solid cancer cell line G361; format: cell-based; conditions: Homo sapiens, G-361, 72 h, three days
Procedure: as §2, with “following” for “following leukemic”, “G361 (malignant melanoma), MCF7 (breast adenocarcinoma), PLC/PRF/5 (liver hepatoma), PANC-1 (pancreatic carcinoma) and HCT116 (colon carcinoma).” for “K562 (human chronic myelogenous leukaemia), HL60 (human promyelocytic leukaemia), CEM (human lymphoblastoid leukaemia), THP1 (human monocytic cell line), MV4; 11 (acute myelocytic leukemia).”, “DMEM” for “RPMI”, “4000-10000” for “2000-5000”, “of a” for “of”, “16” for “8”

[7] = test system: MCF7 (breast adenocarcinoma); assay: MTT cytotoxicity assay, solid cancer cell line MCF7; format: cell-based; conditions: Homo sapiens, MCF7, 72 h, three days
Procedure: as §2, with “following” for “following leukemic”, “G361 (malignant melanoma), MCF7 (breast adenocarcinoma), PLC/PRF/5 (liver hepatoma), PANC-1 (pancreatic carcinoma) and HCT116 (colon carcinoma).” for “K562 (human chronic myelogenous leukaemia), HL60 (human promyelocytic leukaemia), CEM (human lymphoblastoid leukaemia), THP1 (human monocytic cell line), MV4; 11 (acute myelocytic leukemia).”, “DMEM” for “RPMI”, “4000-10000” for “2000-5000”, “of a” for “of”, “16” for “8”

[8] = test system: PLC/PRF/5 (liver hepatoma); assay: MTT cytotoxicity assay, solid cancer cell line PLC/PRF/5; format: cell-based; conditions: Homo sapiens, PLC-PRF-5, 72 h, three days
Procedure: as §2, with “following” for “following leukemic”, “G361 (malignant melanoma), MCF7 (breast adenocarcinoma), PLC/PRF/5 (liver hepatoma), PANC-1 (pancreatic carcinoma) and HCT116 (colon carcinoma).” for “K562 (human chronic myelogenous leukaemia), HL60 (human promyelocytic leukaemia), CEM (human lymphoblastoid leukaemia), THP1 (human monocytic cell line), MV4; 11 (acute myelocytic leukemia).”, “DMEM” for “RPMI”, “4000-10000” for “2000-5000”, “of a” for “of”, “16” for “8”

[9] = test system: PANC-1 (pancreatic carcinoma); assay: MTT cytotoxicity assay, solid cancer cell line PANC-1; format: cell-based; conditions: Homo sapiens, PANC-1, 72 h, three days
Procedure: as §2, with “following” for “following leukemic”, “G361 (malignant melanoma), MCF7 (breast adenocarcinoma), PLC/PRF/5 (liver hepatoma), PANC-1 (pancreatic carcinoma) and HCT116 (colon carcinoma).” for “K562 (human chronic myelogenous leukaemia), HL60 (human promyelocytic leukaemia), CEM (human lymphoblastoid leukaemia), THP1 (human monocytic cell line), MV4; 11 (acute myelocytic leukemia).”, “DMEM” for “RPMI”, “4000-10000” for “2000-5000”, “of a” for “of”, “16” for “8”

HCT116 (colon carcinoma) = assay: MTT cytotoxicity assay, solid cancer cell line HCT116; format: cell-based; conditions: Homo sapiens, HCT-116, 72 h, three days
Procedure: as §2, with “following” for “following leukemic”, “G361 (malignant melanoma), MCF7 (breast adenocarcinoma), PLC/PRF/5 (liver hepatoma), PANC-1 (pancreatic carcinoma) and HCT116 (colon carcinoma).” for “K562 (human chronic myelogenous leukaemia), HL60 (human promyelocytic leukaemia), CEM (human lymphoblastoid leukaemia), THP1 (human monocytic cell line), MV4; 11 (acute myelocytic leukemia).”, “DMEM” for “RPMI”, “4000-10000” for “2000-5000”, “of a” for “of”, “16” for “8”

[10] = test system: HUVECs (human umbilical vein endothelial cells); assay: HUVEC proliferation assay (crystal violet); format: cell-based; conditions: 72 h, read-out: Inhibition of proliferation (EC50)
Procedure: To verify that novel compounds have anti-vascularisation properties, we analyzed their influence on the proliferation and migration of HUVECs. HUVECs (human umbilical vein endothelial cells) were purchased from Promocell (Heidelberg, Germany) and cultured in endothelial cell growth medium (ECGM, Promocell, Heidelberg, Germany) containing 10% FCS (Biochrom, Berlin, Germany). Experiments were performed using cells at passage 3.
For proliferation assay, 1.5×10^3 HUVECs were cultured for 24 h. Afterwards, cells were either left untreated or treated with novel compounds for 72 h. Proliferation assay was performed using crystal violet as described previously (Koltermann et al. 2007, Cell Mol. Life Sci. 64:1715-1722).

T1 sequence (Q00535 whole entry): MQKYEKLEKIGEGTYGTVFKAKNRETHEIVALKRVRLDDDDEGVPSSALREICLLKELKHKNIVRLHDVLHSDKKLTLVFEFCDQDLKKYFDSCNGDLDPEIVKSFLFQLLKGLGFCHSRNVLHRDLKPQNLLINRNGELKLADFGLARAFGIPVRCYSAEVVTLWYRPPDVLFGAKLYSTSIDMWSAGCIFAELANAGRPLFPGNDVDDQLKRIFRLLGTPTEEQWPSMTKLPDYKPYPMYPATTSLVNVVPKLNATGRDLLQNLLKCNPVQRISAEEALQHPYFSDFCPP
T1 sequence (Q15078 whole entry partner): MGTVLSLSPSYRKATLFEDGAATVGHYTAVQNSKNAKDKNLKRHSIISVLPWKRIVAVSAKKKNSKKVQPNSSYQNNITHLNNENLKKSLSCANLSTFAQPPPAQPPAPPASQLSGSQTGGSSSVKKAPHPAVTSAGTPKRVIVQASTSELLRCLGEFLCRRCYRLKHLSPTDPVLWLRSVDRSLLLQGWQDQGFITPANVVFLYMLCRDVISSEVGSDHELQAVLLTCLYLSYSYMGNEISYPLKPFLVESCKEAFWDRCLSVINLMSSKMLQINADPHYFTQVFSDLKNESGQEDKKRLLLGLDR

Structure (SMILES) | IC50 ([1]; Homo sapiens, K562, 72 h) | IC50 ([2]; Homo sapiens, HL-60, 72 h) | IC50 ([3]; Homo sapiens, 72 h) | IC50 ([4]; Homo sapiens, THP-1, 72 h) | IC50 ([5]; Homo sapiens, MV4-11, 72 h) | IC50 (CDK5/p35) | IC50 (CDK2/Cyclin E) | IC50 [1] | IC50 [2] | IC50 [3] | IC50 [4] | IC50 [5] | also measured
CC(C)c1n[nH]c2c(NCc3ccc(-c4ccccn4)cc3)nc(NCC(O)CO)nc12 (centres unmarked) [Compound 35] | 0.24 µM | 0.17 µM | 0.18 µM | 0.26 µM | 0.2 µM | 0.017 µM |  |  |  |  |  |  | 
CC(C)c1n[nH]c2c(NCc3ccc(-c4ccccn4)cc3)nc(NCCN)nc12 [Compound 40] | 0.34 µM | 0.22 µM | 0.14 µM | 0.11 µM | 0.25 µM | 0.038 µM | 0.027 µM |  |  |  |  |  | 
CC(C)c1n[nH]c2c(NCc3ccc(-c4ccccn4)cc3)nc(NCCCN)nc12 [Compound 41] |  |  |  |  |  |  |  | 0.47 µM | 0.56 µM | 0.43 µM | 0.27 µM | 0.35 µM | 
CCN(CC)CCNc1nc(NCc2ccc(-c3ccccn3)cc2)c2[nH]nc(C(C)C)c2n1 [Compound 50] |  |  |  |  |  |  |  | 0.18 µM | 0.14 µM | 0.11 µM | 0.08 µM | 0.17 µM | 
CC(C)c1[nH]nc2c(NCc3ccc(-c4ccccn4)cc3)nc(NCCN3CCC3)nc12 [Compound 54] | 0.36 µM | 0.29 µM | 0.24 µM | 0.37 µM | 0.24 µM | 0.204 µM | 0.322 µM |  |  |  |  |  | 
CC(C)c1[nH]nc2c(NCc3ccc(-c4ccccn4)cc3)nc(NCCN3CCCC3)nc12 [Compound 55] |  |  |  |  |  | 0.182 µM | 0.64 µM |  |  |  |  |  | 
CC(C)c1n[nH]c2c(NCc3ccc(-c4ccccn4)cc3)nc(NCC(C)N3CC3)nc12 (centres unmarked) [Compound 57] |  |  |  |  |  |  |  | 0.44 µM | 0.32 µM | 0.27 µM | 0.29 µM | 0.53 µM | 
CC(C)c1[nH]nc2c(NCc3ccc(-c4ccccn4)cc3)nc(N[C@H]3CC[C@H](N)CC3)nc12 [Compound 67] | 0.59 µM | 0.24 µM | 0.23 µM | 0.3 µM | 0.19 µM | 0.179 µM |  |  |  |  |  |  | IC50 [6]: 0.36 µM; IC50 [7]: 0.47 µM; IC50 [8]: 0.29 µM; IC50 [9]: 0.5 µM; IC50 (HCT116 (colon carcinoma)): 0.37 µM; pEC50 ([10]; Homo sapiens, HUVEC): 7.16
COc1ccc(CNc2nc(NCc3ccc(-c4ccccn4)cc3)c3n[nH]c(C(C)C)c3n2)cc1 [Compound 73] | 3.95 µM | 0.78 µM | 0.89 µM | 0.67 µM | 0.97 µM | 4.42 µM |  |  |  |  |  |  | IC50 [6]: 2.62 µM; IC50 [7]: 5.3 µM; IC50 [8]: 3.94 µM; IC50 [9]: 0.44 µM; IC50 (HCT116 (colon carcinoma)): 0.99 µM; pEC50 ([10]; Homo sapiens, HUVEC): 5.64
CC(C)c1n[nH]c2c(NCc3ccc(-c4ccccn4)cc3)nc(NCc3ccccc3Cl)nc12 [Compound 81] |  |  |  |  |  |  |  |  |  |  |  |  | pEC50 [10]: 5.88
